Test results: ChEMBL document CHEMBL1250522 (Bioorg Med Chem, 2010)

Legend:
MCF7 = experiment: Cytotoxicity against human MCF7 cells after 72 hrs by SRB assay; assay type: functional, cell-based; settings: MCF7, 72 h
[1] = Cytotoxicity against human NCI/ADR cells after 72 hrs by SRB assay; settings: NCI/ADR-RES
[2] = Cytotoxicity against human wild type LCC-6 cells after 72 hrs by SRB assay; settings: LCC-6, 72 h
[3] = Cytotoxicity against human multidrug-resistant LCC-6 cells after 72 hrs by SRB assay; settings: LCC-6, 72 h
A2780 = experiment: Cytotoxicity against human A2780 cells after 72 hrs by SRB assay; assay type: functional, cell-based; settings: A2780, 72 h
CFPAC-1 = experiment: Cytotoxicity against human CFPAC-1 cells after 72 hrs by SRB assay; assay type: functional, cell-based; settings: CFPAC-1, 72 h

Structure (SMILES) | IC50 (MCF7) [µM] | IC50 [1] [µM] | IC50 [2] [µM] | IC50 [3] [µM] | IC50 (A2780) [µM] | IC50 (CFPAC-1) [µM]
O=C1CC/C=C\COc2ccccc2[C@H](NC(=O)c2ccccc2)[C@@H](O)C(=O)O[C@H]2C[C@@H]3[C@@H](OC(=O)c4ccccc4)c4c(cccc4C(=O)N3C2)CO1 | > 100 | > 100 | > 100 | > 100 | 14.8 | > 100
CC(=O)OCc1cccc2c1[C@H](OC(=O)c1ccccc1)[C@H]1C[C@H](OC(=O)[C@H](O)[C@@H](NC(=O)c3ccccc3)c3ccccc3)CN1C2=O | 39.6 | > 100 | 36.3 | > 100 | 7.8 | > 100
CC(=O)OCc1cccc2c1[C@H](OC(=O)c1ccccc1)[C@H]1C[C@H](OC(=O)[C@H](O)[C@@H](NC(=O)c3ccccc3)c3ccccc3)CN1C(=O)C2 | 8.31 | 41.5 | 4.93 | 16.8 | 3.81 | 6.16
